Results on 18 compounds are retold here after US9914731B2, “Pyrazolo[1,5-a]pyridine derivatives and methods of their use” (Ignyta, Inc., priority 2013, dated 2018).

pIC50: −log10 of the molar value. Bounds are passed on as bounds.

The target in the assay is recombinant human baculovirus-expressed cMET (Homo sapiens (Human), UniProt P08581). Kind of assay: c-MET kinase assay (HTRF KinEASE). The format is biochemical. As to conditions: average of two or more determinations; read-out: c-MET IC50. (In general: TR-FRET usually uses a lanthanide donor and a delayed reading to cut background.)
In the case of `Cn1cnc(-c2cc(Oc3ccc(NC(=O)c4cn(CCO)c(=O)n(-c5ccc(F)cc5)c4=O)cc3F)c3ccnn3c2)c1` [Example 97, 3-(4-Fluoro-phenyl)-1-(2-hydroxy-ethyl)-2,4-dioxo-1,2,3,4-tetrahydro-pyrimidine-5-carboxylic acid{3-fluoro-4-[6-(1-methyl-1H-imidazol-4-yl)-pyrazolo[1,5-a]pyridin-4-yloxy]-phenyl}-amide], the pIC50 (commonly the IC50 on a negative log10 scale, so that one unit is a factor of ten) was above 8.00.
With `CCn1cc(C(=O)Nc2ccc(Oc3cc(-c4cncn4C)cn4nccc34)c(F)c2)c(=O)n(-c2ccc(F)cc2)c1=O` [Example 100, 1-Ethyl-3-(4-fluoro-phenyl)-2,4-dioxo-1,2,3,4-tetrahydro-pyrimidine-5-carboxylic acid{3-fluoro-4-[6-(3-methyl-3H-imidazol-4-yl)-pyrazolo[1,5-a]pyridin-4-yloxy]-phenyl}-amide], the pIC50 is above 8.00.
As for `Cc1ccc(C(=O)Nc2ccc(Oc3cc(N4CCOCC4)cn4nccc34)c(F)c2)c(=O)n1-c1ccc(F)cc1` [Example 60, 1-(4-Fluoro-phenyl)-6-methyl-2-oxo-1,2-dihydro-pyridine-3-carboxylic acid [3-fluoro-4-(6-morpholin-4-yl-pyrazolo[1,5-a]pyridin-4-yloxy)-phenyl]-amide], the pIC50 is above 8.00.
For `CC(C)n1nc(C(=O)Nc2ccc(Oc3cc(-c4cn(C)cn4)cn4nccc34)cn2)c(=O)n(-c2ccc(F)cc2)c1=O` [Example 131, 4-(4-Fluoro-phenyl)-2-isopropyl-3,5-dioxo-2,3,4,5-tetrahydro-1,2,4-triazine-6-carboxylic acid{5-[6-(1-methyl-1H-imidazol-4-yl)-pyrazolo[1,5-a]pyridin-4-yloxy]-pyridin-2-yl}-amide], the pIC50 was above 8.00.
Take `CN1CCN(c2cc(Oc3ccc(NC(=O)c4cccn(-c5ccc(F)cc5)c4=O)cc3F)c3ccnn3c2)CC1` [Example 38, 1-(4-Fluoro-phenyl)-2-oxo-1,2-dihydro-pyridine-3-carboxylic acid {3-fluoro-4-[6-(4-methyl-piperazin-1-yl)-pyrazolo[1,5-a]pyridin-4-yloxy]-phenyl}-amide]: the pIC50 was above 8.00.
The value for `CCn1cc(C(=O)Nc2ccc(Oc3cc(N4CCC(F)(F)C4)cn4nccc34)c(F)c2)c(=O)n(-c2ccc(F)cc2)c1=O` [Example 70, 1-Ethyl-3-(4-fluoro-phenyl)-2,4-dioxo-1,2,3,4-tetrahydro-pyrimidine-5-carboxylic acid{4-[6-(3,3-difluoro-pyrrolidin-1-yl)-pyrazolo[1,5-a]pyridin-4-yloxy]-3-fluoro-phenyl}-amide] was 7.00 to 8.00; that for `Cc1nn(-c2ccccc2)c(C)c1C(=O)Nc1ccc(Oc2cccn3nccc23)cc1` [Example 20, 3,5-Dimethyl-1-phenyl-1H-pyrazole-4-carboxylic acid [4-(pyrazolo[1,5-a]pyridin-4-yloxy)-phenyl]-amide] was 5.00 to 6.00.
`Cn1cc(-c2cc(Oc3ccc(NC(=O)c4cccn(-c5ccc(F)cc5)c4=O)cn3)c3ccnn3c2)cn1` [Example 89, 1-(4-Fluoro-phenyl)-2-oxo-1,2-dihydro-pyridine-3-carboxylic acid{6-[6-(1-methyl-1H-pyrazol-4-yl)-pyrazolo[1,5-a]pyridin-4-yloxy]-pyridin-3-yl}-amide]: the pIC50 is above 8.00.
`O=C(Nc1ccc(Oc2cc(Nc3ccccn3)cn3nccc23)c(F)c1)c1cccn(-c2ccc(F)cc2)c1=O` [Example 81, 1-(4-Fluoro-phenyl)-2-oxo-1,2-dihydro-pyridine-3-carboxylic acid{3-fluoro-4-[6-(pyridin-2-ylamino)-pyrazolo[1,5-a]pyridin-4-yloxy]-phenyl}-amide]: the pIC50 was above 8.00.
On to `Cn1ccnc1-c1cc(Oc2ccc(NC(=O)c3cccn(-c4ccc(F)cc4)c3=O)cc2F)c2ccnn2c1` [Example 90, 1-(4-Fluoro-phenyl)-2-oxo-1,2-dihydro-pyridine-3-carboxylic acid{3-fluoro-4-[6-(1-methyl-1H-imidazol-2-yl)-pyrazolo[1,5-a]pyridin-4-yloxy]-phenyl}-amide], for which the pIC50 was above 8.00.
For `CCn1cc(C(=O)Nc2ccc(Oc3cc(-c4cn(C)cn4)cn4nccc34)c(OCc3ccccc3)c2)c(=O)n(-c2ccc(F)cc2)c1=O` [Example 119], the pIC50 was 7.00 to 8.00.
Then `CC(C)n1cc(C(=O)Nc2ccc(Oc3cc(-c4cn(C)cn4)cn4nccc34)c(OCc3ccccc3)c2)c(=O)n(-c2ccc(F)cc2)c1=O` [Example 121, 3-(4-Fluoro-phenyl)-1-isopropyl-2,4-dioxo-1,2,3,4-tetrahydro-pyrimidine-5-carboxylic acid {3-benzyloxy-4-[6-(1-methyl-1H-imidazol-4-yl)-pyrazolo[1,5-a]pyridine-4-yloxy]-phenyl}-amide], with 7.00 to 8.00; and `CCn1cc(C(=O)Nc2ccc(Oc3cc(NS(C)(=O)=O)cn4nccc34)c(F)c2)c(=O)n(-c2ccc(F)cc2)c1=O` [Example 140, 1-Ethyl-3-(4-fluoro-phenyl)-2,4-dioxo-1,2,3,4-tetrahydro-pyrimidine-5-carboxylic acid[3-fluoro-4-(6-methanesulfonylamino-pyrazolo[1,5-a]pyridin-4-yloxy)-phenyl]-amide], with 7.00 to 8.00; and `CCCCCn1cc(C(=O)Nc2ccc(Oc3cc(-c4cn(C)cn4)cn4nccc34)c(F)c2)c(=O)n(-c2ccc(F)cc2)c1=O` [Example 123, 3-(4-Fluoro-phenyl)-2,4-dioxo-1-pentyl-1,2,3,4-tetrahydro-pyrimidine-5-carboxylic acid{3-fluoro-4-[6-(1-methyl-1H-imidazol-4-yl)-pyrazolo[1,5-a]pyridin-4-yloxy]-phenyl}-amide], with above 8.00.
On to `Cn1cc(-c2cc(Oc3ccc(NC(=O)C4(C(=O)Nc5ccc(F)cc5)CC4)cc3F)c3ccnn3c2)cn1` [Example 32, Cyclopropane-1,1-dicarboxylic acid {3-fluoro-4-[6-(1-methyl-1H-pyrazol-4-yl)-pyrazolo[1,5-a]pyridin-4-yloxy]-phenyl}-amide(4-fluoro-phenyl)-amide], for which the pIC50 is above 8.00.
Regarding `CCOCCn1cc(C(=O)Nc2ccc(Oc3cc(N4CCOCC4)cn4nccc34)c(F)c2)c(=O)n(-c2ccc(F)cc2)c1=O` [Example 58, 1-(2-Ethoxy-ethyl)-3-(4-fluoro-phenyl)-2,4-dioxo-1,2,3,4-tetrahydro-pyrimidine-5-carboxylic acid [3-fluoro-4-(6-morpholin-4-yl-pyrazolo[1,5-a]pyridin-4-yloxy)-phenyl]-amide], the pIC50 was 7.00 to 8.00.
Regarding `O=C(Nc1ccc(Oc2cccn3nccc23)cc1)c1cccn(-c2ccc(F)cc2)c1=O` [Example 1, 1-(4-Fluoro-phenyl)-2-oxo-1,2-dihydro-pyridine-3-carboxylic acid [4-(pyrazolo[1,5-a]pyridin-4-yloxy)-phenyl]-amide], the pIC50 is above 8.00.
Then `O=C(Nc1ccc(Oc2cccn3nccc23)c(F)c1)c1c[nH]c(=O)n(-c2ccc(F)cc2)c1=O` [Example 11, 3-(4-Fluoro-phenyl)-2,4-dioxo-1,2,3,4-tetrahydro-pyrimidine-5-carboxylic acid [3-fluoro-4-(pyrazolo[1,5-a]pyridin-4-yloxy)-phenyl]-amide], with 7.00 to 8.00.
